Legend:
[1] = tested on: Hela cell line; assay: Cytotoxicity MTS assay, Hela cell line; type: cell-based; details: for OD490 Mean / OD490 Well 1 / OD490 Well 2 / OD490 Well 3: Hela cell line;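 on OD490 Mean: blank control DMSO at 0.025% final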;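 on OD490 Well 1: blank control DMSO at 0.025% final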;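 on OD490 Well 2: blank control DMSO at 0.025% final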;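 on OD490 Well 3: blank control DMSO at 0.025% final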
Procedure, shortened: (§1)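 Absorbance at 490 nm after a 2 h MTS step at 37 °C gave cell viability. Before that, cells plated at 1000/well were treated for 24 h with compounds spanning 0.5–100 µM (final). IC50 values were fitted by non-linear regression of percent viability versus concentration.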

[2] = tested on: L929 cell line; assay: Cytotoxicity MTS assay, L929 cell line; type: cell-based; details: for OD490 values, Mean / OD490 values, Well 1 / OD490 values, Well 2 / OD490 values, Well 3: L929 cell line
Procedure, shortened: as §1

COC(=O)c1[nH]c(C2NC(=S)NC(C)=C2C(=O)c2ccccc2)c(C(=O)OC)c1C (centres unmarked) [D14] was tested, and the “OD490 Mean” value ([1]; 0.5μM, first assay) was 2.3692, the “OD490 Well 1” value ([1]; 0.5μM, first assay) was 2.2024 and the “OD490 Well 2” value ([1]; 0.5μM, first assay) was 2.5165. For the same compound, the “OD490 Well 3” value ([1]; 0.5μM, first assay) was 2.3887, the “OD490 Mean” value ([1]; 0.5μM, second assay) was 2.4577 and the “OD490 Well 1” value ([1]; 0.5μM, second assay) was 2.5398. For the same compound, the “OD490 Well 2” value ([1]; 0.5μM, second assay) was 2.4478, the “OD490 Well 3” value ([1]; 0.5μM, second assay) was 2.3854 and the “OD490 Mean” value ([1]; 0.5μM, third assay) was 2.5210. The “OD490 Well 1” value ([1]; 0.5μM, third assay) was 2.5365, the “OD490 Well 2” value ([1]; 0.5μM, third assay) was 2.6899 and the “OD490 Well 3” value ([1]; 0.5μM, third assay) was 2.3365. The “OD490 Mean” value ([1]; 1μM, first assay) was 2.4838, the “OD490 Well 1” value ([1]; 1μM, first assay) was 2.3561 and the “OD490 Well 2” value ([1]; 1μM, first assay) was 2.5456. The “OD490 Well 3” value ([1]; 1μM, first assay) was 2.5498, the “OD490 Mean” value ([1]; 1μM, second assay) was 2.4907 and the “OD490 Well 1” value ([1]; 1μM, second assay) was 2.5353. For the same compound, the “OD490 Well 2” value ([1]; 1μM, second assay) was 2.4889, the “OD490 Well 3” value ([1]; 1μM, second assay) was 2.4478 and the “OD490 Mean” value ([1]; 1μM, third assay) was 2.5269. For the same compound, the “OD490 Well 1” value ([1]; 1μM, third assay) was 2.4563, the “OD490 Well 2” value ([1]; 1μM, third assay) was 2.5587 and the “OD490 Well 3” value ([1]; 1μM, third assay) was 2.5656. The “OD490 Mean” value ([1]; 10μM, first assay) was 2.5226, the “OD490 Well 1” value ([1]; 10μM, first assay) was 2.5006 and the “OD490 Well 2” value ([1]; 10μM, first assay) was 2.6290. The “OD490 Well 3” value ([1]; 10μM, first assay) was 2.4381, the “OD490 Mean” value ([1]; 10μM, second assay) was 2.5413 and the “OD490 Well 1” value ([1]; 10μM, second assay) was 2.4987. For the same compound, the “OD490 Well 2” value ([1]; 10μM, second assay) was 2.5687, the “OD490 Well 3” value ([1]; 10μM, second assay) was 2.5565 and the “OD490 Mean” value ([1]; 10μM, third assay) was 2.5164. For the same compound, the “OD490 Well 1” value ([1]; 10μM, third assay) was 2.5321, the “OD490 Well 2” value ([1]; 10μM, third assay) was 2.4598 and the “OD490 Well 3” value ([1]; 10μM, third assay) was 2.5574. For the same compound, the “OD490 Mean” value ([1]; 25μM, first assay) was 2.4708, the “OD490 Well 1” value ([1]; 25μM, first assay) was 2.2633 and the “OD490 Well 2” value ([1]; 25μM, first assay) was 2.6154. The “OD490 Well 3” value ([1]; 25μM, first assay) was 2.5338, the “OD490 Mean” value ([1]; 25μM, second assay) was 2.5615 and the “OD490 Well 1” value ([1]; 25μM, second assay) was 2.5835. The “OD490 Well 2” value ([1]; 25μM, second assay) was 2.5478, the “OD490 Well 3” value ([1]; 25μM, second assay) was 2.5532 and the “OD490 Mean” value ([1]; 25μM, third assay) was 2.4824. The “OD490 Well 1” value ([1]; 25μM, third assay) was 2.3365, the “OD490 Well 2” value ([1]; 25μM, third assay) was 2.4587 and the “OD490 Well 3” value ([1]; 25μM, third assay) was 2.6521. The “OD490 Mean” value ([1]; 50μM, first assay) was 2.7660, the “OD490 Well 1” value ([1]; 50μM, first assay) was 2.6176 and the “OD490 Well 2” value ([1]; 50μM, first assay) was 2.8052. For the same compound, the “OD490 Well 3” value ([1]; 50μM, first assay) was 2.8752, the “OD490 Mean” value ([1]; 50μM, second assay) was 2.6584 and the “OD490 Well 1” value ([1]; 50μM, second assay) was 2.6324. The “OD490 Well 2” value ([1]; 50μM, second assay) was 2.5687, the “OD490 Well 3” value ([1]; 50μM, second assay) was 2.7741 and the “OD490 Mean” value ([1]; 50μM, third assay) was 2.5680. The “OD490 Well 1” value ([1]; 50μM, third assay) was 2.5574, the “OD490 Well 2” value ([1]; 50μM, third assay) was 2.4768 and the “OD490 Well 3” value ([1]; 50μM, third assay) was 2.6698. The “OD490 Mean” value ([1]; 100μM, first assay) was 2.5211, the “OD490 Well 1” value ([1]; 100μM, first assay) was 2.7163 and the “OD490 Well 2” value ([1]; 100μM, first assay) was 2.4550. For the same compound, the “OD490 Well 3” value ([1]; 100μM, first assay) was 2.3919, the “OD490 Mean” value ([1]; 100μM, second assay) was 2.5251 and the “OD490 Well 1” value ([1]; 100μM, second assay) was 2.6987. For the same compound, the “OD490 Well 2” value ([1]; 100μM, second assay) was 2.4465, the “OD490 Well 3” value ([1]; 100μM, second assay) was 2.4301 and the “OD490 Mean” value ([1]; 100μM, third assay) was 2.6068. The “OD490 Well 1” value ([1]; 100μM, third assay) was 2.6689, the “OD490 Well 2” value ([1]; 100μM, third assay) was 2.5641 and the “OD490 Well 3” value ([1]; 100μM, third assay) was 2.5874. For the same compound, the IC50 ([1]; MTS assay, 24 h exposure) was greater than 150 µM, the “OD490 values, Mean” value ([2]; 1μM, first assay) was 1.2798 and the “OD490 values, Well 1” value ([2]; 1μM, first assay) was 1.2932. For the same compound, the “OD490 values, Well 2” value ([2]; 1μM, first assay) was 1.2928, the “OD490 values, Well 3” value ([2]; 1μM, first assay) was 1.2533 and the “OD490 values, Mean” value ([2]; 1μM, second assay) was 1.4907. The “OD490 values, Well 1” value ([2]; 1μM, second assay) was 1.4325, the “OD490 values, Well 2” value ([2]; 1μM, second assay) was 1.3987 and the “OD490 values, Well 3” value ([2]; 1μM, second assay) was 1.6410. For the same compound, the “OD490 values, Mean” value ([2]; 1μM, third assay) was 1.6023, the “OD490 values, Well 1” value ([2]; 1μM, third assay) was 1.5874 and the “OD490 values, Well 2” value ([2]; 1μM, third assay) was 1.6622. The “OD490 values, Well 3” value ([2]; 1μM, third assay) was 1.5574, the “OD490 values, Mean” value ([2]; 1.5μM, first assay) was 1.2729 and the “OD490 values, Well 1” value ([2]; 1.5μM, first assay) was 1.2563. For the same compound, the “OD490 values, Well 2” value ([2]; 1.5μM, first assay) was 1.3177, the “OD490 values, Well 3” value ([2]; 1.5μM, first assay) was 1.2448 and the “OD490 values, Mean” value ([2]; 1.5μM, second assay) was 1.4657. For the same compound, the “OD490 values, Well 1” value ([2]; 1.5μM, second assay) was 1.4258, the “OD490 values, Well 2” value ([2]; 1.5μM, second assay) was 1.4302 and the “OD490 values, Well 3” value ([2]; 1.5μM, second assay) was 1.5412. The “OD490 values, Mean” value ([2]; 1.5μM, third assay) was 1.5678, the “OD490 values, Well 1” value ([2]; 1.5μM, third assay) was 1.5254 and the “OD490 values, Well 2” value ([2]; 1.5μM, third assay) was 1.5988. For the same compound, the “OD490 values, Well 3” value ([2]; 1.5μM, third assay) was 1.5793, the “OD490 values, Mean” value ([2]; 10μM, first assay) was 1.2551 and the “OD490 values, Well 1” value ([2]; 10μM, first assay) was 1.2039. The “OD490 values, Well 2” value ([2]; 10μM, first assay) was 1.3650, the “OD490 values, Well 3” value ([2]; 10μM, first assay) was 1.1963 and the “OD490 values, Mean” value ([2]; 10μM, second assay) was 1.4237. The “OD490 values, Well 1” value ([2]; 10μM, second assay) was 1.3365, the “OD490 values, Well 2” value ([2]; 10μM, second assay) was 1.5325 and the “OD490 values, Well 3” value ([2]; 10μM, second assay) was 1.4022. For the same compound, the “OD490 values, Mean” value ([2]; 10μM, third assay) was 1.5660, the “OD490 values, Well 1” value ([2]; 10μM, third assay) was 1.5254 and the “OD490 values, Well 2” value ([2]; 10μM, third assay) was 1.6200. For the same compound, the “OD490 values, Well 3” value ([2]; 10μM, third assay) was 1.5525, the “OD490 values, Mean” value ([2]; 25μM, first assay) was 1.1670 and the “OD490 values, Well 1” value ([2]; 25μM, first assay) was 1.1764. For the same compound, the “OD490 values, Well 2” value ([2]; 25μM, first assay) was 1.2795, the “OD490 values, Well 3” value ([2]; 25μM, first assay) was 1.0451 and the “OD490 values, Mean” value ([2]; 25μM, second assay) was 1.2993. For the same compound, the “OD490 values, Well 1” value ([2]; 25μM, second assay) was 1.3065, the “OD490 values, Well 2” value ([2]; 25μM, second assay) was 1.2547 and the “OD490 values, Well 3” value ([2]; 25μM, second assay) was 1.3366. For the same compound, the “OD490 values, Mean” value ([2]; 25μM, third assay) was 1.5294, the “OD490 values, Well 1” value ([2]; 25μM, third assay) was 1.4424 and the “OD490 values, Well 2” value ([2]; 25μM, third assay) was 1.5235. The “OD490 values, Well 3” value ([2]; 25μM, third assay) was 1.6222, the “OD490 values, Mean” value ([2]; 50μM, first assay) was 1.0826 and the “OD490 values, Well 1” value ([2]; 50μM, first assay) was 0.8914. For the same compound, the “OD490 values, Well 2” value ([2]; 50μM, first assay) was 1.1616, the “OD490 values, Well 3” value ([2]; 50μM, first assay) was 1.1948 and the “OD490 values, Mean” value ([2]; 50μM, second assay) was 1.1536. The “OD490 values, Well 1” value ([2]; 50μM, second assay) was 1.1241, the “OD490 values, Well 2” value ([2]; 50μM, second assay) was 1.2101 and the “OD490 values, Well 3” value ([2]; 50μM, second assay) was 1.1265. For the same compound, the “OD490 values, Mean” value ([2]; 50μM, third assay) was 1.3855, the “OD490 values, Well 1” value ([2]; 50μM, third assay) was 1.3665 and the “OD490 values, Well 2” value ([2]; 50μM, third assay) was 1.3874. For the same compound, the “OD490 values, Well 3” value ([2]; 50μM, third assay) was 1.4025, the “OD490 values, Mean” value ([2]; 100μM, first assay) was 1.0433 and the “OD490 values, Well 1” value ([2]; 100μM, first assay) was 0.7506. For the same compound, the “OD490 values, Well 2” value ([2]; 100μM, first assay) was 1.0796, the “OD490 values, Well 3” value ([2]; 100μM, first assay) was 1.2998 and the “OD490 values, Mean” value ([2]; 100μM, second assay) was 1.1143. The “OD490 values, Well 1” value ([2]; 100μM, second assay) was 1.1121, the “OD490 values, Well 2” value ([2]; 100μM, second assay) was 1.1285 and the “OD490 values, Well 3” value ([2]; 100μM, second assay) was 1.1022. The “OD490 values, Mean” value ([2]; 100μM, third assay) was 1.3039, the “OD490 values, Well 1” value ([2]; 100μM, third assay) was 1.3251 and the “OD490 values, Well 2” value ([2]; 100μM, third assay) was 1.3325. The “OD490 values, Well 3” value ([2]; 100μM, third assay) was 1.2542 and the IC50 ([2]; MTS assay, 24 h exposure, ordinary fibroblast, not cancer cells) was 137 µM.
